Laboratory results reported in ChEMBL document CHEMBL1201862, “PubChem BioAssay data set” (2004).
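Following 48 hours of exposure in 96-well plates, responses at five concentrations were used to interpolate endpoints linearly. Here, GI50 denotes the concentration required for 50% inhibition of growth.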 Active and inactive are the calls of the source. Cut-off read from the data, not from the text of the source: active = GI50 up to about 1.1 µM and inactive = higher.

Legend:
Assay in all cases: NCI anticancer screen, dose series, 48 h
[1] = system: SNB-19
[2] = system: SF-268
[3] = system: SR
[4] = system: OVCAR-5
[5] = system: RPMI-8226
[6] = system: M14
[7] = system: NCI-H226
[8] = system: ACHN
[9] = system: EKVX
[10] = system: SNB-75
[11] = system: 786-0
[12] = system: BT-549
[13] = system: Malme-3M
[14] = system: MDA-MB-435
[15] = system: PC-3
[16] = system: MDA-N
[17] = system: HOP-92
[18] = system: OVCAR-4
[19] = system: HOP-62
[20] = system: HCC 2998

Structure (SMILES) | GI50 [1] | GI50 [2] | GI50 [3] | GI50 [4] | GI50 [5] | GI50 [6] | GI50 [7] | GI50 [8] | GI50 [9] | GI50 [10] | GI50 [11] | GI50 [12] | GI50 [13] | GI50 [14] | GI50 [15] | GI50 [16] | GI50 [17] | GI50 [18] | GI50 [19] | GI50 [20]
COc1ccc2c(c1)c(=O)c1c(NCCNCCO)ccc3c(=O)n(CCN(C)C)c(=O)n2c31 | 0.07 µM (active) | 0.103 µM (active) | < 0.01 µM (active) | 0.227 µM (active) | 0.0912 µM (active) | 0.27 µM (active) | 0.148 µM (active) | 0.027 µM (active) | 0.0889 µM (active) | 0.0933 µM (active) | < 0.0117 µM (active) | 0.615 µM (active) | 0.0989 µM (active) | 0.103 µM (active) | 0.0836 µM (active) | 0.112 µM (active) | 0.0766 µM (active) | 0.0895 µM (active) | 0.109 µM (active) | < 0.0337 µM (active)
C(=C\c1cccc(/C=C/c2ccccn2)n1)/c1ccccn1 | > 100 µM (inactive) | 20.2 µM (inactive) | 62.2 µM (inactive) | > 100 µM (inactive) | 43.6 µM (inactive) | 43.3 µM (inactive) | > 100 µM (inactive) | 35.2 µM (inactive) | > 100 µM (inactive) | 37.4 µM (inactive) | > 100 µM (inactive) | 18.7 µM (inactive) | 17.3 µM (inactive) | 83.8 µM (inactive) | 58.9 µM (inactive) | 68.2 µM (inactive) | > 100 µM (inactive) | 60.4 µM (inactive) | > 100 µM (inactive) | 79.6 µM (inactive)
CC(=O)OC(C(=O)NNC(=O)OC(C)(C)C)c1ccccc1 (stereo unspecified) | > 100 µM (inactive) | > 100 µM (inactive) | > 100 µM (inactive) | > 100 µM (inactive) | > 100 µM (inactive) | > 100 µM (inactive) | > 100 µM (inactive) | > 100 µM (inactive) | > 100 µM (inactive) | > 100 µM (inactive) | > 100 µM (inactive) | > 100 µM (inactive) | > 100 µM (inactive) | > 100 µM (inactive) | > 100 µM (inactive) | > 100 µM (inactive) | > 100 µM (inactive) | – | > 100 µM (inactive) | > 100 µM (inactive)
N#CCN1CCCN(CC#N)CCN(CC#N)CCCN(CC#N)CC1 | > 100 µM (inactive) | > 100 µM (inactive) | > 100 µM (inactive) | > 100 µM (inactive) | 54.5 µM (inactive) | > 100 µM (inactive) | > 100 µM (inactive) | > 100 µM (inactive) | – | > 100 µM (inactive) | > 100 µM (inactive) | > 100 µM (inactive) | > 100 µM (inactive) | > 100 µM (inactive) | > 100 µM (inactive) | > 100 µM (inactive) | > 100 µM (inactive) | > 100 µM (inactive) | > 100 µM (inactive) | > 100 µM (inactive)
CCOc1ccc2c(c1)c(=O)c1c(NCCN(CC)CC)ccc3nnn2c31 | > 79.8 µM (inactive) | 21.5 µM (inactive) | 10.4 µM (inactive) | > 36.1 µM (inactive) | 15.1 µM (inactive) | 35.2 µM (inactive) | 11.9 µM (inactive) | 15.6 µM (inactive) | 83.2 µM (inactive) | – | > 32.8 µM (inactive) | > 71.3 µM (inactive) | 17.1 µM (inactive) | 16.9 µM (inactive) | 18.8 µM (inactive) | 17.5 µM (inactive) | 29.2 µM (inactive) | 11.9 µM (inactive) | > 31.4 µM (inactive) | > 33.6 µM (inactive)
O=C(NC(Cc1c[nH]cn1)C(=O)N1CCCC1)C1CCCC1 (stereo unspecified) | > 100 µM (inactive) | – | 54.1 µM (inactive) | > 100 µM (inactive) | > 100 µM (inactive) | > 100 µM (inactive) | > 100 µM (inactive) | > 100 µM (inactive) | > 100 µM (inactive) | > 100 µM (inactive) | > 100 µM (inactive) | > 100 µM (inactive) | > 100 µM (inactive) | > 100 µM (inactive) | > 100 µM (inactive) | > 100 µM (inactive) | > 100 µM (inactive) | > 100 µM (inactive) | > 100 µM (inactive) | > 100 µM (inactive)
